# Tests used:
# Format in all cases: functional, cell-based
# [1] = Reversal of resistance to paclitaxel-induced cytotoxicity in paclitaxel-resistant human SW-620/AD300 cells assessed as reduction in paclitaxel IC50 at 2 uM pre-incubated for 4 hrs followed by paclitaxel addition and measured after 72 hrs by MTT assay
# [2] = Cytotoxicity against paclitaxel-resistant human SW620/AD300 cells measured after 72 hrs by MTT assay; conditions: SW-620, 72 h
# HEK-293T = experiment: Cytotoxicity against human HEK293T cells expressing ABCB1 (unknown origin) measured after 72 hrs by MTT assay
Structure (SMILES),Paclitaxel IC50 in presence of compound at 2 uM [1],IC50 [2],IC50 (HEK-293T)
COc1cc2ncnc(-c3c(-c4ccccc4)n(C)c4ccccc34)c2cc1OCCCN1CCOCC1,100 nM,–,–
COc1cc2ncnc(-c3c(-c4ccccc4)n(Cc4cccc(Br)c4)c4ccccc34)c2cc1OCCCN1CCOCC1,20 nM,–,–
COc1cc2ncnc(-c3c(CCc4ccccc4)[nH]c4ccccc34)c2cc1OCCCN1CCOCC1,200 nM,–,–
COc1cc2ncnc(-c3c(Cc4ccccc4)[nH]c4ccccc34)c2cc1OCCCN1CCOCC1,2000 nM,–,–
COc1cc2ncnc(-c3c(-c4ccc(C(C)C)cc4)[nH]c4ccccc34)c2cc1OCCCN1CCOCC1,300 nM,–,–
COc1cc2ncnc(-c3cn(Cc4ccccc4Cl)c4ccccc34)c2cc1OCCCN1CCOCC1,20 nM,–,–
COc1cc2ncnc(-c3c(-c4ccc5ccccc5c4)[nH]c4ccccc34)c2cc1OCCCN1CCOCC1,40 nM,–,–
COc1cc2ncnc(-c3cn(Cc4ccc(C#N)cc4)c4ccccc34)c2cc1OCCCN1CCOCC1,200 nM,–,–
COc1ccc2c(-c3ncnc4cc(OC)c(OCCCN5CCOCC5)cc34)cn(Cc3ccccc3)c2c1,100 nM,–,–
COc1cc2ncnc(-c3c(-c4cccc([N+](=O)[O-])c4)[nH]c4ccccc34)c2cc1OCCCN1CCOCC1,600 nM,–,–
CCn1c(-c2ccccc2)c(-c2ncnc3cc(OC)c(OC)cc23)c2ccccc21,1600 nM,–,–
COc1ccc2c(c1)c(-c1ncnc3cc(OC)c(OCCCN4CCOCC4)cc13)cn2Cc1ccccc1,200 nM,–,–
COc1cc2ncnc(-c3cn(Cc4ccccc4)c4ccccc34)c2cc1OCCCN1CCOCC1,50 nM,–,–
COc1cc2ncnc(-c3c(-c4ccc(Cl)cc4)[nH]c4ccccc34)c2cc1OCCCN1CCOCC1,20 nM,–,–
COc1cc2ncnc(-c3c(-c4ccccc4)n(Cc4cccc(Cl)c4)c4ccccc34)c2cc1OCCCN1CCOCC1,20 nM,–,–
COc1cc2ncnc(-c3c(-c4ccc(Br)cc4)[nH]c4ccccc34)c2cc1OCCCN1CCOCC1,200 nM,–,–
CCn1c(-c2ccccc2)c(-c2ncnc3ccc(Br)cc23)c2ccccc21,2200 nM,–,–
COc1cc2ncnc(-c3c(-c4cccc(Cl)c4)[nH]c4ccccc34)c2cc1OCCCN1CCOCC1,200 nM,–,–
COc1cc2ncnc(-c3c(-c4cccc(C)c4)[nH]c4ccccc34)c2cc1OCCCN1CCOCC1,400 nM,–,–
COc1cc2c(c(OC)c1OC)-c1ccc(OC)c(=O)cc1[C@@H](NC(C)=O)CC2 [COLCHICINE],–,62500 nM,801000 nM
CC(=O)O[C@H]1C(=O)[C@@]2(C)[C@H]([C@H](OC(=O)c3ccccc3)[C@]3(O)C[C@H](OC(=O)[C@H](O)[C@@H](NC(=O)c4ccccc4)c4ccccc4)C(C)=C1C3(C)C)[C@]1(OC(C)=O)CO[C@@H]1C[C@@H]2O [PACLITAXEL],–,2300 nM,36400 nM
CCn1cc(-c2ncnc3cc(OC)c(OCCCN4CCOCC4)cc23)c2ccccc21,300 nM,–,–
COc1cc2ncnc(-c3c(-c4cccc(Br)c4)[nH]c4ccccc34)c2cc1OCCCN1CCOCC1,3000 nM,–,–
